# Assay results published in patent publication US6399649B1, “Compositions and methods for the treatment of chronic lymphocytic leukemia” (Boston Medical Center Corporation, priority 1998, dated 2002).
# What was measured:
# [1] = test system: CLL cells; assay: Hoechst 33342 apoptosis assay, CLL cells; format: cell-based, human; conditions: for percentage of apoptotic cells: three days
# Experimental: (§1) Hoechst 33342 was dissolved in water and frozen at 33 mg/mL at −20° C. One million cells/well were incubated in duplicate or triplicate in 48 well tissue culture plates (Costar, Cambridge, Mass.) with or without drug treatment for […] in 1 mL of culture media. Cells were transferred to 12×75 mm polystyrene Falcon® 2054 FACS tubes (Becton Dickinson Labware, Lincoln Park, N.J.) and incubated for ten minutes at 37° C. with Hoechst 33342 at a final concentration of […]. 23 Cells were stored on ice until analysis on a FACS Vantage flow cytometer (Becton Dickinson, San Jose, Calif.). Hoechst 33342 dye fluorescence was excited with a UV laser and detected using a 450 bandpass filter; Data was analyzed using Cellquest software (Becton Dickinson, San Jose, Calif.).
# As a more quantitative analysis of CLL apoptosis, we utilized a flow cytometry method in which apoptotic cells are distinguished both by their reduced size (FSC) and their increased uptake of the lipophilic UV fluorescent dye Hoechst 33342 (FL-4) when the intact, heterogeneous cell population is incubated with a low concentration of the dye (0.25 ug/mL) for 10 minutes at 37° C. Specifically, cells were cultured for 72 hours in media (1), 1uMol/L rolipram (2), 40 uMol/L forskolin (3) or a combination of the two drugs (FIG. 6). The abcissa reflects forward light scatter and the ordinate Hoechst 33342 fluorescence. Apoptotic cells are characterized by reduced forward light scatter and increased Hoechst 33342 fluorescence. Previous reports of cAMP induced lymphoid apoptosis have noted that this form of programmed cell death may take 48 to 72 hours to develop maximally. […] CLL cells were cultured for 72 hours in one mL of media with the indicated concentration of rolipram with (black bars) or without (stippled bars) the addition of 40 uMol/L forskolin.
# [2] = test system: IL-2 cultured WMC (>90% CD3+ T cells); assay: Hoechst 33342 apoptosis assay, IL-2 cultured WMC; format: cell-based, human; conditions: 72 hours, comparable treatments
# [3] = test system: magnetic bead purified CD19+B cells; assay: Hoechst 33342 apoptosis assay, CD19+ B cells; format: cell-based, human; conditions: 72 hours
# Experimental: as §1
# This example describes the effect of PDE4 inhibition on normal B and T cells. […] Specifically, one million WMC were cultured with the indicated concentration of rolipram with or without the addition of 40 uMol/L forskolin for 72 hours in the presence of 2 units/mL IL-2. Apoptosis was determined by Hoechst 33342 flow cytometry. […] In contrast, magnetic bead purified CD19+B cells were sensitive to rolipram, although the increment in apoptosis observed was superimposed on a high basal apoptosis rate that has previously been reported in cultured human B cells. Given that crosslinking of cell surface immunoglobulin on resting B cells has been reported to reduce basal and forskolin-induced apoptosis in culture, we also stimulated CD19+ cells with a polyclonal Fab′2 anti-IgM/IgG reagent 30 minutes prior to the addition of the phosphodiesterase inhibitor.
# [4] = test system: CLL cells; conditions: cited from earlier work
# [5] = test system: Bal-17 cells; assay: cAMP assay (RIA) in Bal-17 cells; format: cell-based, murine; conditions: basal and forskolin-stimulated (data not shown)
# [6] = target: PDE1 enzymes; conditions: cited from earlier work
# [7] = test system: CLL cells; assay: cAMP assay (RIA) in CLL cells; format: cell-based, human; conditions: 30 uMol/L with forskolin; two hours
# Experimental: One million cells in 1 mL were treated for two hours with or without drugs. 0.8 mL of cells were pelleted by spinning at 4,000 rpm (RCF=1,310) in microcentrifuge tube. After discarding 0.7 mL, 400 uL of ethanol was added, vortexed and left on ice for five minutes. Particulate cell debris was removed by centrifugation at 14,000 rpm (RCF=16,000). The supernatant was stored at −20° C. until the day of assay, at which time it was dried in a Speedivac (Savant, Farmingdale, N.Y.) to a volume of 50 uL. After ten-fold dilution in 10 mMol/L Tris pH 8.0, 1 mMol/L EDTA, the cAMP sample was analyzed for cAMP concentration using a cAMP RIA kit (NEN, Boston, Mass.) according to the manufacturer's instructions using the nonacetylated protocol.
# In this example, it was determined what role type 1 and type 4 PDE activity might play in the catabolism of cyclic nucleotides in CLL cells. cAMP levels were measured after culturing leukemic cells with varying concentrations of PDE-isoform specific inhibitors, either alone or in conjunction with an activator of adenylate cyclase, the diterpene forskolin. Specifically, one million freshly isolated cells were incubated with the indicated drugs for two hours prior to analysis of cAMP in cell lysates using a radioimmunoassay. The results are shown in FIG. 4 and the data are the mean of three individually assayed culture wells.
# [8] = Pt. 3, Rai IV, Drug Res. Ch, CH, basal 38, 10 uMol/L rolipram, 40 uMol/L forskolin or 100 uMol/L dbcAMP
# [9] = Pt. 6, Rai IV, Drug Res. Ch, basal 17 ± 4, 10 uMol/L rolipram, 40 uMol/L forskolin or 100 uMol/L dbcAMP
# [10] = Pt. 7, Rai II, Drug Res. Ch, basal 13 ± 2, 10 uMol/L rolipram, 40 uMol/L forskolin or 100 uMol/L dbcAMP
# [11] = Pt. 9, Rai IV, Drug Res. Ch, Cy, Fl, basal 4 ± 0, 10 uMol/L rolipram, 40 uMol/L forskolin or 100 uMol/L dbcAMP
# [12] = Pt. 11, Rai 0, basal 24 ± 4, 10 uMol/L rolipram, 40 uMol/L forskolin or 100 uMol/L dbcAMP
# [13] = Pt. 14 (significant population of cells with prolymphocyte morphology), Rai I, basal 13 ± 0, 10 uMol/L rolipram, 40 uMol/L forskolin or 100 uMol/L dbcAMP
smiles,measurement,setting,value
"CCCC(=O)Nc1ncnc2c1ncn2[C@@H]1O[C@@H]2COP(=O)(O)O[C@H]2[C@H]1OC(=O)CCC [dbcAMP, dibutyryl cAMP]",percentage of apoptotic cells relative to control cells,"[1]; CLL cells, 72 hours, 10 uMol/L rolipram, 40 uMol/L forskolin, dbcAMP greater than or equal to 30 mMol/L",increased significantly
same,percentage of apoptotic cells,[1]; [8],71 ± 3%
same,percentage of apoptotic cells,[1]; [9],39 ± 4%
same,percentage of apoptotic cells,[1]; [10],32 ± 4%
same,percentage of apoptotic cells,[1]; [11],46 ± 1%
same,percentage of apoptotic cells,[1]; [12],39 ± 2%
same,percentage of apoptotic cells,"[1]; Pt. 13, Rai 0, basal 2 ± 0, 10 uMol/L rolipram, 40 uMol/L forskolin or 100 uMol/L dbcAMP",23 ± 6%
same,percentage of apoptotic cells,[1]; [13],22 ± 0%
same,percentage of apoptotic cells relative to control cells,[2],did not significantly increase
same,percentage of apoptotic cells relative to control cells,"[3]; anti-Ig stimulated B cells, comparable treatments",did not significantly increase
same,percentage of apoptotic cells relative to control cells,"[3]; resting B cells, 10 uMol/L rolipram, 40 uMol/L forskolin, dbcAMP greater than or equal to 30 mMol/L",increased significantly
C=C[C@@]1(C)CC(=O)[C@]2(O)[C@@]3(C)[C@@H](O)CCC(C)(C)[C@@H]3[C@H](O)[C@H](OC(C)=O)[C@@]2(C)O1 [forskolin],percentage of apoptotic cells,"[1]; Pt. 2, Rai IV, Drug Res. Ch, Cy, basal 18 ± 2, 10 uMol/L rolipram, 40 uMol/L forskolin or 100 uMol/L dbcAMP",46%
same,percentage of apoptotic cells,[1]; [8],59 ± 0%
same,percentage of apoptotic cells,[1]; [9],30 ± 4%
same,percentage of apoptotic cells,[1]; [10],32 ± 0%
same,percentage of apoptotic cells,"[1]; Pt. 8, Rai 0, basal 5, 10 uMol/L rolipram, 40 uMol/L forskolin",22%
same,percentage of apoptotic cells,[1]; [11],17 ± 4%
same,percentage of apoptotic cells,"[1]; Pt. 10, Rai I, basal 11, 10 uMol/L rolipram, 40 uMol/L forskolin or 100 uMol/L dbcAMP",26 ± 4%
same,percentage of apoptotic cells,[1]; [12],40 ± 3%
same,percentage of apoptotic cells,"[1]; Pt. 12, Rai IV, Drug Res. Ch, Fl, 2C, basal 0 ± 4, 10 uMol/L rolipram, 40 uMol/L forskolin or 100 uMol/L dbcAMP",43 ± 1%
same,percentage of apoptotic cells,[1]; [13],19 ± 3%
Cn1c(=O)c2[nH]cnc2n(C)c1=O [Theophylline],apoptosis in CLL cells,[4],induces apoptosis
CCOC(=O)C1=C[C@]2(CC)CCCN3CCc4c(n1c1ccccc41)[C@@H]32 [vinpocetine],CLL cell apoptosis,[1]; 10 or 30 uMol/L,underwent apoptosis
same,time of peak apoptosis,[1]; CLL cells (data not shown),≤ 24 h
same,cAMP levels in Bal-17 cells,[5],reduced both basal and forskolin-stimulated cAMP levels
same,IC50,[6],21 µM
same,CLL cell cAMP,[7],not augmented above levels induced by forskolin alone
